Patent publication US20060189608A1, “Methods for treating ocular angiogenesis, retinal edema, retinal ischemia, and diabetic retinopathy using selective RTK inhibitors” (Alcon, Inc., priority 2005, published 2006)
pIC50: −log10 of the molar value.

Columns and labels:
[1] = tested on: existing laser-induced choroidal neovascularization (CNV); assay: Regression of existing laser-induced CNV, intravitreal injection, mouse; assay type: in vivo; details: for Mean CNV / Median CNV: intravitreal at day 7, day 14; for inhibition of CNV as compared to vehicle-injected eyes at day 14 post-laser: intravitreal at day 7; for reduction of median CNV area compared to CNV present at 7 days post-laser: intravitreal at day 7, read at day 14
Procedure: Methods. CNV was generated by laser-induced rupture of Bruch's membrane. Briefly, 4 to 5 week old male C57BL/6J mice were anesthetized using intraperitoneal administration of ketamine hydrochloride (100 mg/kg) and xylazine (5 mg/kg) and the pupils of both eyes dilated with topical ocular instillation of 1% tropicamide and 2.5% Mydfin®. One drop of topical cellulose (Gonioscopic®) was used to lubricate the cornea. A hand-held cover slip was applied to the cornea and used as a contact lens to aid visualization of the fundus. Three to four retinal burns were placed in randomly assigned eye (right or left eye for each mouse) using the Alcon 532 nm EyeLite laser with a slit 5 lamp delivery system. The laser burns were used to generate a rupture in Bruch's membrane, which was indicated ophthalmoscopically by the formation of a bubble under the retina. Only mice with laser burns that produced three bubbles per eye were included in the study. Bums were typically placed at the 3, 6, 9 or 12 o'clock positions in the posterior pole of the retina, avoiding the branch retinal arteries and veins.
Each mouse was randomly assigned into one of the following treatment groups: noninjected controls, sham-injected controls, vehicle-injected mice, or one of three RTKi-injected groups. Control mice received laser photocoagulation in both eyes, where one eye received a sham injection, i.e. a pars plana needle puncture. […] The intravitreal injection was performed immediately after laser photocoagulation. At 14 days post-laser, all mice were anesthetized and systemically perfused with fluorescein-labeled dextran. Eyes were then harvested and prepared as choroidal flat mounts with the RPE side oriented towards the observer. All choroidal flat mounts were examined using a fluorescent microscope. Digital images of the CNV were captured, where the CNV was identified as areas of hyperfluorescence within the pigmented background. Computerized image analysis was used to delineate and measure the two dimensional area of the hyperfluorescent CNV per lesion (um^2) for the outcome measurement. The median CNV area/burn per mouse per treatment group or the mean CNV area/burn per treatment group was used for statistical analysis depending on the normality of data distribution; P≦0.05 was considered significant.
METHODS: CNV was generated by laser-induced rupture of Bruch's membrane as described above in Example 3. Each mouse was randomly assigned to one of the following treatment groups: noninjected controls, sham-injected controls, vehicle-injected mice, AL-39324 injected groups. Control mice received laser photocoagulation in both eyes, where one eye received a sham injection, i.e. a pars plana needle puncture. […] All mice received laser photocagulation at day 0. For mice randomized to an injection group, a single intravitreal injection was performed at 7 days post-laser. Also at 7 days post-laser, several mice with no-injection were euthanized and their eyes used for controls. At 14 days post-laser, all remaining mice were euthanized and systemically perfused with fluorescein-labeled dextran. Eyes were then harvested and prepared as choroidal flat mounts with the RPE side oriented towards the observer. Choroidal flat mounts were analyzed as described above in Example 3.

[2] = tested on: VEGF-induced retinal vascular permeability; assay: VEGF-induced retinal vascular permeability, intravitreal injection, rat; assay type: in vivo, Sprague-Dawley rats; details: 10 μl intravitreal
Procedure: METHODS: Adult Sprague-Dawley rats were anesthetized with intramuscular ketamine/xylazine and their pupils dilated with topical cycloplegics. […] Ten μl of each compound was intravitreally injected in each treatment eye (n=6 eyes per group). Three days following first intravitreal injection, all animals received an intravitreal injection of 10 μl 400 ng hr VEGF in both eyes. Twenty-four hours post-injection of VEGF, intravenous infusion of 3% Evans blue dye was performed in all animals, where 50 mg/kg of Evans blue dye was injected via the lateral tail vein during general anesthesia. After the dye had circulated for 90 minutes, the rats were euthanized. The rats were then systemically perfused with balanced salt solution, and then both eyes of each rat were immediately enucleated and the retinas harvested using a surgical microscope. After measurement of the retinal wet weight, the Evans blue dye was extracted by placing the retina in a 0.2 ml formamide (Sigma) and then the homogenized and ultracentrifuged. Blood samples were centrifuged and the plasma diluted 100 fold in formamide. For both retina and plasma samples, 60 μl of supernatant was used to measure the Evans blue dye absorbance (ABS) with at 620/740 nm. The blood-retinal barrier breakdown and subsequent retinal vascular permeability as measured by dye absorbance were calculated as means±s.e.m. of net ABS/wet weight/plasma ABS. A two-tailed Student's t-test was used for pair wise comparisons between OS and OD eyes in each group. One way ANOVA was used to determine an overall difference between treatment means, where P≦0.05 was considered significant.

[3] = tested on: rat OIR model; assay: Preretinal neovascularization, rat OIR model, oral gavage; assay type: in vivo, Sprague-Dawley rats; details: for % Inhibition (vs vehicle-injected eye): preretinal NV
Procedure: Immediately following euthanasia, retinas from all rat pups were harvested, fixed in 10% neutral buffered formalin for 24 hours, subjected to ADPase staining, and fixed onto slides as whole mounts. Digital images were acquired from each retinal flat mount that was adequately prepared. Computerized image analysis was used to obtain a NV clockhour score from each readable sample. Each clockhour out of 12 total per retina was assessed for the presence or absence of preretinal NV. Statistical comparisons using median scores for NV clockhours from each treatment group were utilized in nonparametric analyses. Each noninjected pup represented one NV score by taking the average value of both eyes and was used in comparisons against each dosage group. Because the pups were randomly assigned and no difference was observed between oxygen-exposed control pups from all litters, the NV scores were combined for all treatment groups. P≦0.05 was considered statistically significant.
METHODS: Pregnant Sprague-Dawley rats were received at 14 days gestation and subsequently gave birth on Day 22±1 of gestation. Immediately following parturition, pups were pooled and randomized into separate litters (n=17 pups/litter), placed into separate shoebox cages inside oxygen delivery chamber, and subjected to an oxygen-exposure profile from Day 0 to Day 14 postpartum. Litters were then placed into room air from Day 14/0 through Day 14/6 (days 14-20 postpartum). Additionally on Day 14/0, each pup was randomly assigned as oxygen-exposed controls, vehicle treated, or drug-treated at 1.5, 5, 10 mg/kg, p.o., BID. At Day 14/6 (20 days postpartum), all animals in both studies were euthanized and retina whole mounts were prepared as described in Example 1 above.

[4] = target: FGFR; assay: Kinase inhibition profile, related RTK; assay type: biochemical; details: ATP concentration of 1 nM
[5] = target: IGFR (Homo sapiens, UniProt P08069); assay: Kinase inhibition profile, non-related TK; assay type: biochemical; details: ATP concentration of 1 nM
IGFR, sequence (P08069 31-1367): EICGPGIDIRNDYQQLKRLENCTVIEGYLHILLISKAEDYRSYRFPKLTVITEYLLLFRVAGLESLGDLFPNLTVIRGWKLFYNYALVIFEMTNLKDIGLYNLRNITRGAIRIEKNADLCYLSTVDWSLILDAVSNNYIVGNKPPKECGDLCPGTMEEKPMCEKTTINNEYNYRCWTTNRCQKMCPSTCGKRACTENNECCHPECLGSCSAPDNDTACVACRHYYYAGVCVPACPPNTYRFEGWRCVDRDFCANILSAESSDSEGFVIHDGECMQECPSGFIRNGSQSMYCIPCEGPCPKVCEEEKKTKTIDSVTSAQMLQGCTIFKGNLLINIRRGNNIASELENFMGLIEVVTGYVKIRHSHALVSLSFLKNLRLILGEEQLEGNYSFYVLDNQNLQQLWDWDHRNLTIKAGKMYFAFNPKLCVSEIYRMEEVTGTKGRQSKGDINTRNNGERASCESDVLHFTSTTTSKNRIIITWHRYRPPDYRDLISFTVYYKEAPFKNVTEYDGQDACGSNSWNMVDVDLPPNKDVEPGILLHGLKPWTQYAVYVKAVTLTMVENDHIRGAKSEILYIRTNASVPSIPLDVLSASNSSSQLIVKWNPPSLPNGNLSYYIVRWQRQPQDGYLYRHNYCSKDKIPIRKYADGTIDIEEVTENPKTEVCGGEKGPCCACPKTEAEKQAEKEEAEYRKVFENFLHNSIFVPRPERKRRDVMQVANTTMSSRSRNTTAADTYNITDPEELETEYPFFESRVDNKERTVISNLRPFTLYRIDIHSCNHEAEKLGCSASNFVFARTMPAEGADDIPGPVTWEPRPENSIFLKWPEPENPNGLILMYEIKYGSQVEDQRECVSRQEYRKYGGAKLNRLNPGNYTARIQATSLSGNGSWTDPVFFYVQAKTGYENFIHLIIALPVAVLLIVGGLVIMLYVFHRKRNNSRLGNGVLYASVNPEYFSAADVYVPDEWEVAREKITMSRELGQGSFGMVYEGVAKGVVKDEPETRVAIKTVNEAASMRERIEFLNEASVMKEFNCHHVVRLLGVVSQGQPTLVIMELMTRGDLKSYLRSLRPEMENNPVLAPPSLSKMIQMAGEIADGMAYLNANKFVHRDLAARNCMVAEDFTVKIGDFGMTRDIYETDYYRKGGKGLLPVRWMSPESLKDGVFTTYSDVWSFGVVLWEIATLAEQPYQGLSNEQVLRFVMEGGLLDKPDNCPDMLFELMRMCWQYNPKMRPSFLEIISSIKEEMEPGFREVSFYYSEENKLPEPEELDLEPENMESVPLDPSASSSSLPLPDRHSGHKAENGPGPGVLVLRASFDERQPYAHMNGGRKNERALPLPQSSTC

SMILES: Cc1ccc(F)c(NC(=O)Nc2ccc(-c3cccc4[nH]nc(N)c34)cc2)c1 [AL-39324, N-[4-[3-amino-1H-indazol-4-yl)phenyl]-N′-(2-fluoro-5-methylphenyl)urea]
- Mean CNV ([1]; 1% (2 μl)): 31000 µm²
- Median CNV ([1]; 1% (2 μl)): 28300 µm²
- Mean CNV ([1]; 1% (5 μl)): 39200 µm²
- Median CNV ([1]; 1% (5 μl)): 36400 µm²
- inhibition of CNV as compared to vehicle-injected eyes at day 14 post-laser ([1]; 2 μl 1%): 55.9%
- reduction of median CNV area compared to CNV present at 7 days post-laser ([1]; 2 μl 1%): 45.4%
- Mean CNV ([1]; 3% (5 μl)): 35200 µm²
- Median CNV ([1]; 3% (5 μl)): 30600 µm²
- inhibition of CNV as compared to vehicle-injected eyes at day 14 post-laser ([1]; 3%): 52.3%
- inhibition of CNV as compared to vehicle-injected eyes at day 14 post-laser ([1]; 5 μl 1%): 43.7%
- reduction of median CNV area compared to CNV present at 7 days post-laser ([1]; 5 μl 1%): 29.7%
- reduction of median CNV area compared to CNV present at 7 days post-laser ([1]; 5 μl 3%): 41.0%
- decrease of retinal vascular permeability as compared to vehicle-injected eyes ([2]; 0.3%): 50%
- mean ABS±s.e.m. (net ABS/wet weight/plasma ABS, Evans blue) ([2]; 0.3%): 4.84±0.64
- decrease of retinal vascular permeability as compared to vehicle-injected eyes ([2]; 1.0%): 61%
- mean ABS±s.e.m. (net ABS/wet weight/plasma ABS, Evans blue) ([2]; 1.0%): 3.87±0.62
- decrease of retinal vascular permeability as compared to vehicle-injected eyes ([2]; 3%): 53%
- mean ABS±s.e.m. (net ABS/wet weight/plasma ABS, Evans blue) ([2]; 3.0%): 4.75±0.40
- Median NV ([3]; 3 mg/kg in PEG 400, p.o.): 7.5
- NV Range ([3]; 3 mg/kg in PEG 400, p.o.): 3.8-9.8
- % Inhibition (vs vehicle-injected eye) ([3]; 3 mg/kg in PEG 400, p.o. (per day, BID)): −1.4%
- decrease in NV ([3]; 3 mg/kg/day p.o.): did not have a significant decrease in NV
- Median NV ([3]; 10 mg/kg in PEG 400, p.o.): 1.105
- NV Range ([3]; 10 mg/kg in PEG 400, p.o.): 0-8
- % Inhibition (vs vehicle-injected eye) ([3]; 10 mg/kg in PEG 400, p.o. (per day, BID)): 86.4%
- Median NV ([3]; 20 mg/kg in PEG 400, p.o.): 0
- NV Range ([3]; 20 mg/kg in PEG 400, p.o.): 0
- % Inhibition (vs vehicle-injected eye) ([3]; 20 mg/kg in PEG 400, p.o. (per day, BID)): 100%
- inhibition of preretinal NV ([3]; 20 mg/kg/day p.o.): complete inhibition of preretinal NV
- pIC50 [4]: < 4.90
- pIC50 [5]: < 4.30
